Source: patent US6156700A, “3-(1,2-Benzisothiazol- and isoxazol-5-yl)-2,4(1H,3H)-pyrimidinedione or thione and 3-(1,2-benzisothiazol- and isoxazol-5-yl)-4(3H)-pyrimidinone or thione herbicidal agents” (American Cyanmid Company, priority 1998, dated 2000)

Experiments:
Conditions in all cases: 0.0630 kg/ha
Corn, Field, Zea mays = experiment: Postemergence herbicidal evaluation, ZEAMX; assay type: in vivo, L.
Protocol: (§1) In the tests, seedling plants are grown in jiffy flats for about two weeks. The test compounds are dispersed in 50/50 acetone/water mixtures containing 0.5% TWEEN®20, a polyoxyethylene sorbitan monolaurate surfactant of Atlas Chemical Industries, in sufficient quantities to provide the equivalent of about 0.0157 kg to 0.500 kg per hectare of active compound when applied to the plants through a spray nozzle operating at 40 psi for a predetermined time. After spraying, the plants are placed on greenhouse benches and are cared for in accordance with conventional greenhouse procedures. From four to five weeks after treatment, the seedling plants are examined and rated according to the rating system set forth below. Where more than one test is involved for a given compound, the data are averaged.
(§2) Results of herbicide evaluation are expressed on a rating scale (0-9). The scale is based upon a visual observation of plant stand, vigor, malformation, size, chlorosis and overall plant appearance as compared with a control.

[1] = tested on: Sicklepod, Cassia obtusifolia; experiment: Postemergence herbicidal evaluation, CASOB; assay type: in vivo, L.
Protocol: as §1, §2

[2] = tested on: Velvetleaf, Abutilon theophrasti; experiment: Postemergence herbicidal evaluation, ABUTH; assay type: in vivo, Medic.
Protocol: as §1, §2

[3] = tested on: Foxtail, Green, Setaria viridis; experiment: Postemergence herbicidal evaluation, SETVI; assay type: in vivo, (L.) Beau
Protocol: as §1, §2

[4] = tested on: Lambsquarters, Common, Chenopodium album; experiment: Postemergence herbicidal evaluation, CHEAL; assay type: in vivo, L.
Protocol: as §1, §2

[5] = tested on: Barnyardgrass, Echinochloa crus-galli; experiment: Postemergence herbicidal evaluation, ECHCG; assay type: in vivo, (L.) Beau
Protocol: as §1, §2

[6] = tested on: Rice, Tebonnet, Oryza sativa; experiment: Postemergence herbicidal evaluation, ORYSAT; assay type: in vivo, (L.) Tebonnet
Protocol: as §1, §2

[7] = tested on: Ragweed, Common, Ambrosia artemisifolia; experiment: Postemergence herbicidal evaluation, AMBEL; assay type: in vivo, L.
Protocol: as §1, §2

Galium, Galium aparine = experiment: Postemergence herbicidal evaluation, GALAP; assay type: in vivo
Protocol: as §1, §2

[8] = tested on: Soybean, Williams, Glycine max; experiment: Postemergence herbicidal evaluation, GLXMAW; assay type: in vivo, (L.) Merr. cv Williams
Protocol: as §1, §2

[9] = tested on: Morningglory, Ivyleaf, Ipomoea hederacea; experiment: Postemergence herbicidal evaluation, IPOHE; assay type: in vivo, (L.) Jacq.
Protocol: as §1, §2

[10] = tested on: Wheat, Winter, cv Riband, Triticum aestivum; experiment: Postemergence herbicidal evaluation, TRZAWR; assay type: in vivo
Protocol: as §1, §2

| Structure (SMILES) | herbicide rating (0-9) (Corn, Field, Zea mays) | herbicide rating (0-9) [1] | herbicide rating (0-9) [2] | herbicide rating (0-9) [3] | herbicide rating (0-9) [4] | herbicide rating (0-9) [5] | herbicide rating (0-9) [6] | herbicide rating (0-9) [7] | herbicide rating (0-9) (Galium, Galium aparine) | herbicide rating (0-9) [8] | herbicide rating (0-9) [9] | herbicide rating (0-9) [10] |
| --- | --- | --- | --- | --- | --- | --- | --- | --- | --- | --- | --- | --- |
| C=CCOc1ccc(C)cc1-c1nsc2ccc(-n3c(=O)cc(C(F)(F)F)n(C)c3=O)cc12 [Compound 65, 3-{3-[6-(Allyloxy)-m-tolyl)-1,2-benzisothiazol-5-yl}-1-methyl-6-(trifluoromethyl)-2,4(1H,3H)-pyrimidinedione] | 5.5 | 9.0 | 9.0 | 9.0 | 9.0 | 1.0 | 1.5 | 9.0 | 4.0 | 5.5 | 9.0 | 3.5 |
| Cc1ccc(OCC(=O)OC(C)(C)C)c(-c2nsc3ccc(-n4c(=O)cc(C(F)(F)F)n(C)c4=O)cc23)c1 [Compound 68, tert-Butyl {{2-{5-[3,6-dihydro-3-methyl-2,6-dioxo-4-(trifluoromethyl)-1(2H)-pyrimidinyl]-1,2-benzisothiazol-3-yl}-p-tolyl}oxy}acetate] | 5.0 | 9.0 | 6.0 | 9.0 | 9.0 | 5.0 | 2.0 | 5.0 | 2.0 | 5.5 | 9.0 | 3.5 |
| C=CCOC(=O)COc1ccc(C)cc1-c1nsc2ccc(-n3c(=O)cc(C(F)(F)F)n(C)c3=O)cc12 [Compound 69, Allyl {{2-{5-[3,6-dihydro-3-methyl-2,6-dioxo-4-(trifluoromethyl)-1(2H)-pyrimidinyl]-1,2-benzisothiazol-3-yl}-p-tolyl}oxy}acetate] | 8.5 | 9.0 | 9.0 | 9.0 | 9.0 | 9.0 | 8.0 | 9.0 | 9.0 | 9.0 | 9.0 | 8.0 |
| Cc1ccc(OCC(=O)OCCN(C)C)c(-c2nsc3ccc(-n4c(=O)cc(C(F)(F)F)n(C)c4=O)cc23)c1 [Compound 70, 2-(Dimethylamino)ethyl {{2-[5-[3,6-dihydro-3-methyl-2,6-dioxo-4-(trifluoromethyl)-1(2H)-pyrimidinyl]-1,2-benzisothiazol-3-yl}-p-tolyl}oxy}acetate] | 6.0 | 9.0 | 9.0 | 9.0 | 9.0 | 9.0 | 3.0 | 9.0 | 5.0 | 8.0 | 9.0 | 5.0 |
| Cc1ccc(OCC(=O)OCCCl)c(-c2nsc3ccc(-n4c(=O)cc(C(F)(F)F)n(C)c4=O)cc23)c1 [Compound 71, 2-Chloroethyl {{2-{5-[3,6-dihydro-3-methyl-2,6-dioxo-4-(trifluoromethyl)-1(2H)-pyrimidinyl]-1,2-benzisothiazol-3-yl}-p-tolyl}oxy}acetate] | 8.5 | 9.0 | 9.0 | 9.0 | 9.0 | 9.0 | 8.0 | 9.0 | 9.0 | 9.0 | 9.0 | 9.0 |
